Measured values: patent US20140128357A1, “METHODS OF PRODUCING AND USING BRASSINOSTEROIDS TO PROMOTE GROWTH, REPAIR AND MAINTENANCE OF SKELETAL MUSCLE AND SKIN” (Rutgers University, priority 2010, published 2014)
Where two headings read alike, the source gives them in different places.

Key:
[1] = Body composition and blood biochemistry, rats on high-protein diet, 24 d oral HB (Protocol 2); type: in vivo, rat; details: for Bone mineral content / Fat mass / Lean mass: DEXA
Experimental: Six-week-old male Wistar rats (180-220 g, Charles River Laboratories, MA) were housed in individual chambers in a room maintained at a constant room temperature with 12 h light-dark cycle. Animals had free access to food and water. Animals were allowed to adapt to new conditions for 7 d and handling the animals was carried out daily during this time to reduce the stress of physical manipulation. Animals were randomized into groups according to bodyweight 1 d prior to dosing.
Protocol 2: Three groups of Wistar rats (n=8), fed a high-protein diet containing 39.4% protein, 10.0% fat, 4.3% fiber, and 37.0% carbohydrates, resulting in 3.93 kcal/g energy value (#5779 diet, Testdiet/Purina, Richmond, Ind.), were gavaged daily for 24 d with 1 ml of vehicle (5% DMSO in corn oil), 20 or 60 mg/kg HB. All procedures and measurements followed protocol 1.
Blood samples were taken from overnight-fasted animals by heart puncture, collected in EDTA-coated tubes, centrifuged 1,500 g for 20 min, and separated plasma was stored at −80° C. until analysis. Glucose was measured in blood samples using a Lifescan glucometer (Johnson and Johnson, New Brunswick, N.J.). […] Plasma triglycerides and total cholesterol were measured by enzymatic colorimetric assays (Wako Diagnostics, Richmond, Va.). Total testosterone in plasma samples was quantified by an ELISA assay (DRG Diagnostics, Marburg, Germany).

[2] = test system: orchiectomized (ORX) Wistar rats; type: in vivo, rat; details: for Glans penis weight: listed as HB
Experimental: Protocol 3: Four-week-old sham-operated (sham, n=6) or orchiectomized (ORX, n=24) Wistar rats (Charles River Laboratories, MA) were subject to a 10-d Hershberger assay (surgically castrated peri-pubertal adult model) under the following experimental conditions: sham, ORX (vehicle), ORX (20 mg/kg HB orally), ORX (60 mg/kg HB orally), and ORX (0.4 mg/kg testosterone propionate subcutaneously, serving as a positive control for the assay). All procedures and measurements followed protocol 1, except no body composition measurements were taken. Limb grip strength was measured for control animals and animals receiving 60 mg/kg HB using a digital force gauge (Wagner Instruments model FDV5) by Product Safety Laboratories (Dayton, N.J.). After the rats were allowed to grip the screen with paws, the animals were quickly pulled until the paws released from the screen, and the required release force was recorded. Three trials on each animal were performed in triplicate, and significance was determined using Student's t test (p<0.05). In addition to the gastrocnemius muscle, androgen-sensitive tissues (ventral prostate, seminal vesicles, bulbocavernosus/levator ani muscle complex, glans penis, and Cowper's gland) were dissected out and weighed.
The muscle samples for histochemical analysis were taken from the middle section of the mixed-fiber gastrocnemius muscle of the castrated animals treated according to protocol 4 (described herein above) to allow for the observation of differences in fiber type distribution and cross-section area associated with ORX and HB treatments. Serial transverse cryosections (10 μm) were prepared from each muscle and were analyzed for myofibrillar adenosine triphosphatase (mATPase) histochemistry after alkaline (pH=9.5) preincubation. Fiber cross-section area and enzyme activity levels were determined from digitized images of the muscle cross-sections that were stored as gray-level pictures using ImageJ software (National Institutes of Health, Bethesda, Md.). […]

[3] = test system: TNF-α, TGF-β and ICAM-1 mRNA in wounds; test: Cytokine and chemokine mRNA in wound tissue, qPCR; type: in vivo; details: day 10 post-wounding, 10 μg/mouse topically
Experimental: Cutaneous would healing is characterized by an initial inflammatory response. To evaluate the effect of brassinosteroids on inflammation in wound healing, mRNA levels of proinflammatory cytokines TNF-α and TGF-β and an adhesion chemokine ICAM-1 were measured in the wound tissue of control and treated mice on day 10 post-wounding and treatment with HB, positive control (CGS-21680), or negative control (vehicle).
Total RNA was extracted from fibroblasts using Trizol (Invitrogen, Carlsbad, Calif.). RNA was quantified spectrophotometrically by absorbance measurements at 260 and 280 nm using the NanoDrop reader (NanoDrop Technologies, Wilmington, Del.). Quality of RNA was assessed by gel electrophoresis. RNA was then treated with DnaseI (Invitrogen, Carlsbad, Calif.) to remove traces of DNA contamination and the cDNAs were synthesized with 2.5 μg of RNA using Stratascript reverse transcriptase (Stratagene, Santa Clara, Calif.) according to the manufacturers' protocols. Quantitative PCR was performed in duplicate essentially as described previously (Komarnytsky et al., Int. J. Obes. 35: 236-43, 2011) using the following gene-specific primers (IDT, Coralville, Iowa) selected using the Primer Express 2.0 software (Applied Biosystems, Foster City, Calif.): β-actin, forward primer 5′-GGGAAATCGTGCGTGACATT-3′ (SEQ ID NO: 5), and reverse primer 5′-GCG GCA GTG GCC ATC TC-3′ (SEQ ID NO: 6). Target gene expression of the housekeeping gene β-actin was assigned a value of 1. Samples were subjected to a melting curve analysis to confirm the amplification specificity. The relative change in the […] with respect to the endogenous control gene was determined using 2ΔΔCT method (Winer et al., Anal. Biochem. 270: 41-9, 1999).

[4] = ORX rats, 20 mg/kg oral daily 10 d
[5] = ORX rats, 60 mg/kg oral daily 10 d
[6] = ORX rats, 60 mg/kg oral per day 10 days

Structure (SMILES): CC[C@@H](C(C)C)[C@H](O)[C@@H](O)[C@@H](C)[C@H]1CC[C@H]2[C@@H]3COC(=O)[C@H]4C[C@H](O)[C@H](O)C[C@]4(C)[C@H]3CC[C@]12C [Compound 1, (22S,23S,24S)-2α,3α,22,23-tetrahydroxy-24 ethyl-β-homo-7-oxo-5α-cholestane-6-one]
- Body weight ([1]; 20 mg/kg oral daily 24 d): 337.6 ± 6.4 g
- Body weight gain ([1]; 20 mg/kg oral daily 24 d): 98.3 ± 5.2 g
- Gastrocnemius muscle ([1]; 20 mg/kg oral daily 24 d): 1.98 ± 0.01 g
- Bone mineral content ([1]; 20 mg/kg oral daily 24 d): 7.5 ± 0.2 g
- Fat mass ([1]; 20 mg/kg oral daily 24 d): 68.6 ± 3.1 g
- Lean mass ([1]; 20 mg/kg oral daily 24 d): 246.8 ± 7.4 g
- Body weight ([1]; 60 mg/kg oral daily 24 d): 335.8 ± 5.1 g
- Body weight gain ([1]; 60 mg/kg oral daily 24 d): 91.1 ± 3.2 g
- Gastrocnemius muscle ([1]; 60 mg/kg oral daily 24 d): 2.17 ± 0.03 g
- Bone mineral content ([1]; 60 mg/kg oral daily 24 d): 7.4 ± 0.1 g
- Fat mass ([1]; 60 mg/kg oral daily 24 d): 61.2 ± 3.8 g
- Lean mass ([1]; 60 mg/kg oral daily 24 d): 258.6 ± 2.7 g
- increase in gastrocnemius muscle mass ([2]; ORX rats, 20 mg/kg oral 10 d): 13.8%
- Bulbocavernosus/levator ani weight [2, 4]: 109.2 ± 8.6 mg
- Cowper's gland weight [2, 4]: 11.2 ± 0.7 mg
- Seminal vesicles weight [2, 4]: 37.3 ± 3.5 mg
- Ventral prostate weight [2, 4]: 26.0 ± 2.5 mg
- Glans penis weight ([2]; ORX rats, 20 mg/kg oral daily 10 d, 20 mg/kg): 55.3 ± 1.7 mg
- increase in gastrocnemius muscle mass ([2]; ORX rats, 60 mg/kg oral 10 d): 10.3%
- Bulbocavernosus/levator ani weight [2, 5]: 137.7 ± 9.9 mg
- Cowper's gland weight [2, 5]: 12.5 ± 1.1 mg
- Seminal vesicles weight [2, 5]: 34.7 ± 3.3 mg
- Ventral prostate weight [2, 5]: 23.0 ± 2.4 mg
- Glans penis weight ([2]; ORX rats, 60 mg/kg oral daily 10 d, 60 mg/kg): 59.6 ± 1.6 mg
- Change in grip strength of lower extremities [2, 6]: 0.0851 ± 0.0197 kg
- change in grip strength for front limbs [2, 6]: 0.2711 ± 0.0660 kg
- increase in total number of type IIa and type IIb fibers ([2]; gastrocnemius, 20 or 60 mg/kg per day 10 d, independent of dose): approximately 60%
- androgenic activity in the Hershberger assay ([2]; rat, in vivo): very low androgenic activity
- ICAM-1 mRNA in wound tissue [3]: significant suppression
- TGF-β mRNA in wound tissue [3]: weak effect on the downregulation
- TNF-α mRNA in wound tissue [3]: nearly complete downregulation
